According to article PMC6891315, “Synthesis of Novel Farnesoid X Receptor Agonists and Validation of Their Efficacy in Activating Differentiation of Mouse Bone Marrow-Derived Mesenchymal Stem Cells into Osteoblasts” (Molecules, 2019):

Legend:
ST-2 MSCs [1] = assay: ALP staining and ALP activity in BMP-2-induced osteoblast differentiation; type: cell-based, mouse; details: for staining and activity of ALP: with BMP-2 50 ng/mL, 6 or 12 days, 10 μM CDCA, 5 μM GW4064, 5 μM 3 or 4, vs BMP-2-treated cells
Protocol: (§1) Mouse ST-2 MSCs were obtained from RIKEN BioResource Research Center (Tsukuba, Japan) and cultured in RPMI-1640 medium (Sigma) containing 10% (v/v) fetal calf serum and antibiotics (100 units/mL penicillin and 100 μg/mL streptomycin; Nacalai Tesque) at 37 °C in an atmosphere of 5% CO2. The ST-2 MSCs were allowed to differentiate into osteoblasts for 6 or 12 days in RPMI-1640 medium with BMP-2 (50 ng/mL). The medium was changed every 3 days.
The ST-2 MSCs were allowed to differentiate into osteoblasts for 12 days in RPMI-1640 medium with BMP-2 (50 ng/mL) and one of FXR agonists together with or without GS (25 μM). Then, the cells were washed twice with PBS and fixed with 10% (v/v) formaldehyde in PBS at 25 °C for 10 min. The cells were again washed with PBS, and incubated with the staining solution (0.1 mg/mL naphthol AS-MX phosphate and 0.6 mg/mL Fast-blue BB salt in 0.1 M Tris-Cl, pH 8.8) at 25 °C for 30 min. After removing the staining solution, the cells were washed with PBS and visualized under a microscope (CKX-41, Olympus, Tokyo, Japan).
The ALP activity was measured using LabAssay ALP (FUJIFILM Wako Pure Chemical) according to the manufacturer’s protocols. Protein concentrations were measured using a Pierce BCA Protein Assay Kit (Thermo Fisher Scientific).

ST-2 MSCs [2] = assay: Cell toxicity (WST, Cell Counting Kit-8) assay; type: cell-based, mouse; details: 12 days; 0–10 μM CDCA, 0–5 μM GW4064, 0–5 μM 3 or 4
Protocol: The cells were washed twice with PBS, and cell viability was determined using Cell Counting Kit-8 (Dojindo Molecular Technologies, Kumamoto, Japan) according to the protocols provided by the supplier. The cell viability (%) was shown relative to the vehicle-treated cells (0 μM).

[3] = system: ALP gene expression in ST-2 MSCs; assay: qPCR of ALP gene during osteoblast differentiation; type: cell-based, mouse; details: for ALP gene expression (mRNA level): with BMP-2 50 ng/mL, 6 or 12 days, 10 μM CDCA, 5 μM GW4064, 5 μM 3 or 4, vs BMP-2-treated cells
Protocol: as §1
(§2) RNAiso Plus was used to isolate total RNA (Takara-Bio, Kyoto, Japan). Subsequently total RNA (1 μg) was reverse-transcribed to cDNAs using ReverTra Ace reverse transcriptase (Toyobo, Osaka, Japan) and random hexamer (Takara-Bio). Thereafter, the mRNA levels were determined by qPCR analysis using a Power SYBR Green Master Mix (Thermo Fisher Scientific) in an Applied Biosystems 7500 Real Time PCR System (Thermo Fisher Scientific). The relative mRNA expression levels were determined using the 2^−ΔΔCT method and normalized to that of glyceraldehyde-3-phosphate dehydrogenase (GAPDH).

[4] = system: RUNX2, COL1A1 and OCN gene expression in ST-2 MSCs; assay: qPCR of osteogenic genes (RUNX2, COL1A1, OCN) during osteoblast differentiation; type: cell-based, mouse; details: for expression of RUNX2, COL1A1 and OCN genes: with BMP-2 50 ng/mL, 10 μM CDCA, 5 μM GW4064, 5 μM 3 or 4, vs BMP-2-treated cells
Protocol: as §1, §2

[5] = system: FXR, BSEP and SHP gene expression in ST-2 MSCs; assay: qPCR of FXR and FXR-target genes (BSEP, SHP) during osteoblast differentiation; type: cell-based, mouse; details: for mRNA expression level of FXR: with BMP-2 50 ng/mL, 6 and 12 days, 10 μM CDCA, 5 μM GW4064, 5 μM 3 or 4, vs BMP-2-treated cells
Protocol: as §1, §2

FXR = details: cited from earlier work
LXRα = molecular target: T1, LXRα (Homo sapiens, UniProt Q13133); assay: LXRα response element-driven luciferase reporter assay in COS-7 cells; details: 1 μM
T1 sequence (Q13133 1-447): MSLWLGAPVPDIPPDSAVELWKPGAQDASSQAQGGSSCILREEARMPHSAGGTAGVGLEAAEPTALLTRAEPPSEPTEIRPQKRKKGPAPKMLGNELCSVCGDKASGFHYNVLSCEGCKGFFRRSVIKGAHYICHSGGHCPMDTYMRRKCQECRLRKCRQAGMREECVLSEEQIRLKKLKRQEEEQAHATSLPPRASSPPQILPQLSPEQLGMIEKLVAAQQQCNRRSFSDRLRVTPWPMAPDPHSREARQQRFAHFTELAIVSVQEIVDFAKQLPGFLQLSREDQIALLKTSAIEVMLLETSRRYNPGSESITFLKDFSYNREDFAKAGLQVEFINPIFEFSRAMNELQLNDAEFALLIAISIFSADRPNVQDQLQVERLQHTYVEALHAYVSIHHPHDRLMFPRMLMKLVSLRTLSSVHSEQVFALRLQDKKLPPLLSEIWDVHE
Protocol: Luciferase reporter assay was performed as described previously [53]. Briefly, human hepatoma Huh-7 (for FXR, RARα, and RXRα), transformed African green monkey kidney fibroblast COS-7 (for LXRα/β and PPARα/γ/δ), or human embryonic kidney HEK293 (for VDR and TGR5) cells were transfected with each of plasmids for nuclear receptor and nuclear receptor-response element-driven luciferase gene. […] The luciferase activity was measured as described previously [53].

Row | Compound | staining and activity of ALP (ST-2 MSCs [1]) | cytotoxicity (cell viability, WST assay) (ST-2 MSCs [2]) | ALP gene expression (mRNA level) [3] | expression of RUNX2, COL1A1 and OCN genes ([4]; 6 days) | mRNA expression level of FXR [5] | also measured
1 | CC(C)c1onc(-c2c(Cl)cccc2Cl)c1COc1ccc(-c2nc3ccc(C(=O)O)cc3n2C)cc1Cl [FXR agonist 3] | enhanced | No cytotoxicity | enhance | elevated | elevated | ability to enhance ALP staining and activity compared with GW4064 (ST-2 MSCs [1]; 6- or 12-days-differentiated ST-2 MSCs, 5 μM): comparable to that of GW4064; ability to enhance ALP gene expression compared with GW4064 ([3]; 5 μM, with BMP-2): comparable to that of GW4064; increase of RUNX2, COL1A1 and OCN expression compared with GW4064 ([4]; 6 days, 5 μM, with BMP-2): comparable to that of GW4064
2 | CC[C@H]1[C@@H](O)[C@@H]2[C@H](CC[C@]3(C)[C@@H]([C@H](C)CCC(=O)O)CC[C@@H]23)[C@@]2(C)CC[C@@H](O)C[C@@H]12 [6-ECDCA, 6α-ethylchenodeoxycholic acid] |  |  |  |  |  | potency relative to CDCA (FXR): about 100 fold
3 | CC(C)c1onc(-c2c(Cl)cccc2Cl)c1COc1ccc(/C=C/c2cccc(C(=O)O)c2)c(Cl)c1 [GW4064] | elevated | No cytotoxicity | elevated | further enhanced | elevated | 
4 | C/C=C1\C(=O)C[C@H]2[C@@H]3CCC4=CC(=O)CC[C@]4(C)[C@H]3CC[C@]12C [GS, (Z)-guggulsterone] |  |  |  |  |  | effect on FXR agonist-induced staining and activity of ALP (ST-2 MSCs [1]; co-treatment with 25 μM GS): suppressed; effect on FXR agonist-induced ALP gene expression ([3]; co-treatment with 25 μM GS): repressed; effect on novel FXR agonist-induced expression of osteogenic genes ([4]; co-treatment with 25 μM GS): repressed; effect on FXR agonist-induced BSEP and SHP expression ([5]; co-treatment with 25 μM GS): suppressed; effect on FXR agonist-induced FXR gene expression ([5]; co-treatment with 25 μM GS): repressed
5 | CC(C)c1onc(-c2c(Cl)cccc2Cl)c1COc1ccc(-c2nc3ccc(C(=O)O)cc3n2C)c(Cl)c1 [FXR agonist 4, 2-[2-Chloro-4-[[3-(2,6-dichlorophenyl)-5-isopropyl-isoxazol-4-yl]methoxy]phenyl]-3-methyl-benzimidazole-5-carboxylic acid] | enhanced | No cytotoxicity | enhance | elevated | elevated | 
6 | CC(C)c1onc(-c2c(Cl)cccc2Cl)c1COc1ccc(-c2nc3ccc(C(=O)O)cc3n2C)cc1 [FXR agonist 1] |  |  |  |  |  | LXRα-response element-driven luciferase activity (LXRα): increased
7 | CC(C)c1onc(-c2c(Cl)cccc2Cl)c1COc1ccc(-c2nc3cc(C(=O)O)ccc3n2C)cc1 [FXR agonist 2] |  |  |  |  |  | LXRα-response element-driven luciferase activity (LXRα): increased
8 | C[C@H](CCC(=O)O)[C@H]1CC[C@H]2[C@@H]3[C@H](O)C[C@@H]4C[C@H](O)CC[C@]4(C)[C@H]3CC[C@]12C [CDCA, chenodeoxycholic acid] | elevated | No cytotoxicity | elevated | further enhanced | elevated | 
